In the supplement of paper PMC10307832:

Key:
Assay in all cases: relative viability (nuclei count vs DMSO), 5 days (fraction); higher = more cells survive
Idelalisib + Navitoclax = compound: CC[C@H](Nc1ncnc2[nH]cnc12)c1nc2cccc(F)c2c(=O)n1-c1ccccc1 [Idelalisib] + CC1(C)CCC(c2ccc(Cl)cc2)=C(CN2CCN(c3ccc(C(=O)NS(=O)(=O)c4ccc(N[C@H](CCN5CCOCC5)CSc5ccccc5)c(S(=O)(=O)C(F)(F)F)c4)cc3)CC2)C1 [Navitoclax] (partner 0.5 µM)
Outline: (§1)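 Relative viability equals treated-well nuclei counts divided by vehicle-well nuclei counts. Counts came from 4× images of lung cancer cell lines grown in 1536-well plates for 5 days after pin-tool dosing on the day after seeding. Dosing used one drug alone or a fixed anchor-drug dose plus five library-drug doses (not always all listed) in √10 steps, and values are medians of duplicate plates.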

Idelalisib + Pemetrexed = compound: CC[C@H](Nc1ncnc2[nH]cnc12)c1nc2cccc(F)c2c(=O)n1-c1ccccc1 [Idelalisib] + Nc1nc2[nH]cc(CCc3ccc(C(=O)N[C@@H](CCC(=O)O)C(=O)O)cc3)c2c(=O)[nH]1 [Pemetrexed] (partner 0.2 µM)
Outline: as §1

Idelalisib + Olaparib = compound: CC[C@H](Nc1ncnc2[nH]cnc12)c1nc2cccc(F)c2c(=O)n1-c1ccccc1 [Idelalisib] + O=C(c1cc(Cc2n[nH]c(=O)c3ccccc23)ccc1F)N1CCN(C(=O)C2CC2)CC1 [Olaparib] (partner 8 µM)
Outline: as §1

Pemetrexed + Decitabine = compound: Nc1nc2[nH]cc(CCc3ccc(C(=O)N[C@@H](CCC(=O)O)C(=O)O)cc3)c2c(=O)[nH]1 [Pemetrexed] + Nc1ncn([C@H]2C[C@H](O)[C@@H](CO)O2)c(=O)n1 [Decitabine] (partner 2 µM)
Outline: as §1

Cell Line	relative viability (Idelalisib + Navitoclax; first compound 0.04 µM)	relative viability (Idelalisib + Navitoclax; first compound 0.1265 µM)	relative viability (Idelalisib + Navitoclax; first compound 0.4 µM)	relative viability (Idelalisib + Navitoclax; first compound 1.265 µM)	relative viability (Idelalisib + Navitoclax; first compound 4 µM)	relative viability (Idelalisib + Pemetrexed; first compound 0.04 µM)	relative viability (Idelalisib + Pemetrexed; first compound 0.1265 µM)	relative viability (Idelalisib + Pemetrexed; first compound 0.4 µM)	relative viability (Idelalisib + Pemetrexed; first compound 1.265 µM)	relative viability (Idelalisib + Pemetrexed; first compound 4 µM)	relative viability (Idelalisib + Olaparib; first compound 0.04 µM)	relative viability (Idelalisib + Olaparib; first compound 0.1265 µM)	relative viability (Idelalisib + Olaparib; first compound 0.4 µM)	relative viability (Idelalisib + Olaparib; first compound 1.265 µM)	relative viability (Idelalisib + Olaparib; first compound 4 µM)	relative viability (Pemetrexed + Decitabine; first compound 0.002 µM)	relative viability (Pemetrexed + Decitabine; first compound 0.006325 µM)	relative viability (Pemetrexed + Decitabine; first compound 0.02 µM)	relative viability (Pemetrexed + Decitabine; first compound 0.06325 µM)	relative viability (Pemetrexed + Decitabine; first compound 0.2 µM)
NCI-H1993	0.844	0.971	0.762	0.912	0.75	0.592	0.67	0.548	0.614	0.59	1.16	1.07	0.866	0.915	0.791	0.619	0.661	0.622	0.576	0.461
LXF-289	0.961	0.948	0.912	1.02	0.97	0.921	0.933	0.864	0.965	0.94	1.13	1.07	1.02	1.06	1.04	0.363	0.393	0.38	0.403	0.404
NCI-H1792	0.464	0.587	0.617	0.667	0.645	0.707	1.09	0.45	0.823	0.631	0.244	0.369	0.267	0.409	0.298	0.506	0.532	0.527	0.507	0.56
LU99A	0.835	0.894	0.719	0.91	0.827	0.174	0.153	0.189	0.149	0.19	0.251	0.25	0.274	0.206	0.241	0.802	0.753	0.947	0.865	0.887
SW 1573	0.859	0.837	0.994	0.926	0.791	0.825	0.848	0.802	0.702	0.739	0.465	0.426	0.364	0.521	0.431	0.577	0.662	0.615	0.53	0.525
COR-L23	1.07	0.965	1.05	1.11	1.02	0.186	0.203	0.199	0.204	0.182	0.368	0.326	0.348	0.327	0.316	0.419	0.465	0.554	0.225	0.188
NCI-H1755	0.964	0.959	0.923	0.836	0.687	0.431	0.415	0.38	0.434	0.438	0.881	0.892	0.842	0.801	0.821	0.708	0.738	0.734	0.693	0.695
LOU-NH91	0.741	0.699	0.667	0.463	0.617	0.369	0.414	0.392	0.408	0.408	0.986	0.936	0.856	0.848	0.912	0.811	0.78	0.798	0.66	0.578
EMC-BAC-2	1.13	1.2	1.12	1.21	1.06	0.484	0.44	0.477	0.435	0.43	0.459	0.518	0.477	0.472	0.476	0.965	0.882	1	0.971	0.64
ChaGo-K-1	1.03	1.01	1.12	1.09	1.14	0.254	0.252	0.268	0.254	0.264	0.347	0.399	0.472	0.38	0.379	0.538	0.531	0.552	0.531	0.368
NCI-H2023	1.05	1.02	0.994	0.945	0.939	0.244	0.239	0.212	0.169	0.256	0.463	0.495	0.542	0.436	0.472	0.181	0.206	0.246	0.173	0.125
EKVX	0.863	0.914	0.876	0.807	0.853	0.407	0.387	0.377	0.386	0.395	0.756	0.915	0.755	0.884	0.74	0.405	0.257	0.368	0.316	0.325
NCI-H2085	1.23	1.16	0.951	0.938	0.764	0.909	0.852	0.789	0.746	0.528	0.642	0.743	0.767	0.741	0.677	0.584	0.513	0.53	0.527	0.642
NCI-H3122	1.07	1.04	1.02	0.995	0.961	0.21	0.207	0.196	0.188	0.198	0.611	0.626	0.669	0.584	0.49	0.452	0.379	0.413	0.417	0.305
HCC-827	1.06	1.05	1.03	1.03	0.964	0.267	0.218	0.232	0.249	0.25	0.667	0.613	0.612	0.571	0.491	0.264	0.341	0.409	0.214	0.305
HARA	1.2	1.11	1.17	1.16	1.09	0.24	0.243	–	0.222	0.247	0.738	0.998	–	0.758	0.792	0.486	0.457	0.659	0.437	0.234
